Here are results for one compound from patent US20080242636A1, “MODIFIED CYCLODEXTRIN SULFATE-71 (TERIGYN) AS A MICROBICIDE AGENT” (priority 2007, published 2008).

Data set [1] concerns LAV-1, a laboratory strain of HIV-1. The data set is described as follows: p24 antigen anti-HIV assay in pretreated PBMC and MT4 cells infected with LAV-1. The format is cell-based. As to the method: (§1) Primary peripheral blood mononuclear cells and a MT4 cell line were pretreated with varying concentrations of terygyn before infection with LAV-1, a laboratory strain of HIV-1. As a control, a set of similar cells were not pretreated with the compound. Anti-HIV activity was measured using p24 antigen testing. Terygyn achieved total HIV inhibition (IC100) at 1 ug/ml. Cell toxicity was not observed till the concentration of terygyn was 10 ug/ml. […] Terygyn's ability to inhibit HIV at lower concentration makes it a more attractive compound for safe clinical use.

The test system of data set [2] is Primary peripheral blood mononuclear cells and MT4 cell line. The format is cell-based. The procedure:
as §1

In data set [3] the test system is HIV-1 R5 viruses. Description: TZM-bL luciferase assay, R5 viruses. The data set is classed as cell-based. To be noted: TZM-bL cells, 48 hr at 37 C. The procedure: (§2) To further determine the inhibition of Terygyn of either CXCR4 or R5 viruses in cervical explants, various concentrations of Terygyn were cultured in TZM-bL cells with TCID50 HIV-1. TZM-bL are X4 positive HeLa cell clones that have been engineered to express CD4 and CCR5 and integrates a reporter gene for firefly luciferase and E coli b-galactosidase. Virus and drugs were left in culture for 48 hr at 37 C and luciferase assay determined thereafter.

Data set [4] concerns HIV-1 X4 viruses. The data set is described as follows: TZM-bL luciferase assay, X4 viruses. To be noted: TZM-bL cells, 48 hr at 37 C. The format is cell-based. The procedure: as §2
For data set [5], the system named is HIV. To be noted: as described by Tanabe Seiyaku 1991; cited from earlier work.
The conditions of data set [6]: rats, safety trials; cited from earlier work.
The mark [7] stands for this setting: IC50 comparison with literature value.
[8] abbreviates: PBMC and MT4 pretreated, LAV-1, p24 antigen.

`O=S(=O)([O-])OC[C@@H]1O[C@@H]2O[C@H]3[C@H](OS(=O)(=O)[O-])[C@H](OCc4ccccc4)[C@@H](O[C@H]4[C@H](OS(=O)(=O)[O-])[C@H](OCc5ccccc5)[C@@H](O[C@H]5[C@H](OS(=O)(=O)[O-])[C@H](OCc6ccccc6)[C@@H](O[C@H]6[C@H](OS(=O)(=O)[O-])[C@H](OCc7ccccc7)[C@@H](O[C@H]7[C@H](OS(=O)(=O)[O-])[C@H](OCc8ccccc8)C(O[C@H]8[C@H](OS(=O)(=O)[O-])[C@H](OCc9ccccc9)C(O[C@H]1[C@H](OS(=O)(=O)[O-])[C@@H]2OCc1ccccc1)O[C@H]8COS(=O)(=O)[O-])O[C@H]7COS(=O)(=O)[O-])O[C@H]6COS(=O)(=O)[O-])O[C@H]5COS(=O)(=O)[O-])O[C@H]4COS(=O)(=O)[O-])O[C@H]3COS(=O)(=O)[O-].[Na+].[Na+].[Na+].[Na+].[Na+].[Na+].[Na+].[Na+].[Na+].[Na+].[Na+].[Na+].[Na+].[Na+]` [Terygyn, Tetradecasodium heptakis (2-0 benzyl)β-cyclodextrin tetradecasulfate]: in data set [1] (setting [7]), the “fold more potent than PRO 2000” value is given as “fifty-fold” and the “fold more potent than Ushercell” value was found to be 100 fold. Further, in data set [1] (setting [8]), the “in vitro antiviral activity IC50” value was determined as 0.5 µg/mL and the “total HIV inhibition (IC100)” value was determined as 1 µg/mL. Besides, in data set [2], the “concentration until which cell toxicity was not observed” value was found to be 10000 ng/mL. In data set [3], the “IC50 R5 viruses” value turned out to be 0.13 ± 0.05 µg/mL. For the same compound, the “IC50 X4 viruses” value in data set [4] came to 0.88 ± 1.2 µg/mL. Also, the “anti-HIV activity in vitro” value in data set [5] was 0.98 µg/mL. For the same compound, the tolerability in data set [6] is recorded as 125 mg/kg/day.
